Where a name gives a salt, the structure may show the parent alone.
Key:
A375 cells = assay: cells; conditions: Homo sapiens, A-375, read-out: A375 Viability EC50
RAF kinases [1] = target: RAF kinases (Homo sapiens, UniProt P04049); assay: biochemical
[2] = system: MEK1 phosphorylation in the A375 human melanoma cell line; assay: cells; conditions: A-375, read-out: pMEK IC50
RAF kinases [3] = target: RAF kinases (Homo sapiens, UniProt P15056); assay: biochemical
Sequence of RAF kinases (Homo sapiens, UniProt P15056) (P15056 whole entry): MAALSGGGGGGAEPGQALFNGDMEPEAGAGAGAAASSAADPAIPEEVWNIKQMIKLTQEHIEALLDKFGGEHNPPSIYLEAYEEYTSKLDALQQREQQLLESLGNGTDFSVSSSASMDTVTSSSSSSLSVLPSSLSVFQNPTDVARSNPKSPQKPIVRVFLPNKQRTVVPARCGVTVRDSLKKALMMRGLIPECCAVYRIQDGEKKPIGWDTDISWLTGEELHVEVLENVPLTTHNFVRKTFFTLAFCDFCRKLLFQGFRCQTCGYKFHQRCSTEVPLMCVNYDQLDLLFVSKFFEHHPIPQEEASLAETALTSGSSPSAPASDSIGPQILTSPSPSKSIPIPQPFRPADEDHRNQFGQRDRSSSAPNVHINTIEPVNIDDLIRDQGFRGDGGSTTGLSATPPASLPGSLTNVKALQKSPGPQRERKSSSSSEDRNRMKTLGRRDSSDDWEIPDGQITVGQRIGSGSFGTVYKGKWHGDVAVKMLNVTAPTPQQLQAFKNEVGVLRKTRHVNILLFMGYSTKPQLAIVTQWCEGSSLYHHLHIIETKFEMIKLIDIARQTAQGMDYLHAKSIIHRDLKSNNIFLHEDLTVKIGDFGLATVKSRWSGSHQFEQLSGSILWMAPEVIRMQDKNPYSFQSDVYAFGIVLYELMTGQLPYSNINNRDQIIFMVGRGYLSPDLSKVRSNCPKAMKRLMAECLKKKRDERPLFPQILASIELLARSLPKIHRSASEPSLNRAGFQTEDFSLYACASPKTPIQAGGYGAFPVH

Sequence of RAF kinases (Homo sapiens, UniProt P04049) (P04049 whole entry): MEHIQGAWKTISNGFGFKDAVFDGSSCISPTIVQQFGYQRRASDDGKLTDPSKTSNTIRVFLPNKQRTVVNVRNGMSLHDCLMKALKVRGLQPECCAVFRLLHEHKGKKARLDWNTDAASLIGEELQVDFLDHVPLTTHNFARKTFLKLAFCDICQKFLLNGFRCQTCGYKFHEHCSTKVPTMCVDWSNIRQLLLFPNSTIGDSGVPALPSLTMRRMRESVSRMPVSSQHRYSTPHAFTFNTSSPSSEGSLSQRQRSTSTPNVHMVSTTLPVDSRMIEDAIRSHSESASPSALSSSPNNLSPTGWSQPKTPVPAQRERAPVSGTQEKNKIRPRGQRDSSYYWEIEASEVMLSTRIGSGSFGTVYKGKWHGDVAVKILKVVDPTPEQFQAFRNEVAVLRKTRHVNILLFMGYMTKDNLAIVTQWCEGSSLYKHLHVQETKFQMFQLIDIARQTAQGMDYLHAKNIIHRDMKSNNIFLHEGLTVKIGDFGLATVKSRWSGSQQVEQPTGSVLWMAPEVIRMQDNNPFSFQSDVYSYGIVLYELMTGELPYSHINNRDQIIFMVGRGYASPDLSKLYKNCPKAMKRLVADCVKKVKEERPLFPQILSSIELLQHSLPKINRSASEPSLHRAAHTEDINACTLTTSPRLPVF

| EC50 (A375 cells) [nM] | IC50 [2] [nM] | Kd (RAF kinases [3]) [nM] | SMILES | Kd (RAF kinases [1]) [nM] |
| --- | --- | --- | --- | --- |
| > 1000 | 500 to 1000 | 250 to 500 | COc1cc2ncnc(Sc3cccc(NC(=O)Nc4cccc(C(F)(F)F)c4)c3)c2cc1OC [Ex 185, 1-(3-(6,7-dimethoxyquinazolin-4-ylthio)phenyl)-3-(3-(trifluoromethyl)phenyl)urea] |  |
| > 1000 | 250 to 500 | 250 to 500 | COc1cc2ncnc(Oc3cccc(NC(=O)Nc4ccc(OC)c(C(F)(F)F)c4)c3)c2cc1OC [Ex 138, 1-(3-(6,7-dimethoxyquinazolin-4-yloxy)phenyl)-3-(4-methoxy-3-(trifluoromethyl)phenyl)urea] |  |
| > 1000 | 250 to 500 | 250 to 500 | COc1cc2ncnc(Sc3cccc(NC(=O)Nc4cc(C5CCCC5)on4)c3)c2cc1OC [Ex 201, 1-(5-cyclopentylisoxazol-3-yl)-3-(3-(6,7-dimethoxyquinazolin-4-ylthio)phenyl)urea] |  |
| 250 to 500 | < 250 | 250 to 500 | COc1cc2ncnc(Oc3cccc(NC(=O)Nc4cc(C(C)(C)C)on4)c3)c2cc1O [Ex 107, 1-(5-tert-butylisoxazol-3-yl)-3-(3-(6-hydroxy-7-methoxyquinazolin-4-yloxy)phenyl)urea] |  |
| > 1000 | 500 to 1000 | 250 to 500 | COc1cc2ncnc(Oc3cccc(NC(=O)Nc4ccc(C(F)(F)F)cc4)c3)c2cc1OC [Ex 183, 1-(3-(6,7-dimethoxyquinazolin-4-yloxy)phenyl)-3-(4-(trifluoromethyl)phenyl)urea] |  |
| > 1000 | 500 to 1000 | 250 to 500 | COc1cc2ncnc(Oc3cccc(NC(=O)Nc4cc(C(C)(C)CO)on4)c3)c2cc1OC [Ex 131, 1-(3-(6,7-dimethoxyquinazolin-4-yloxy)phenyl)-3-(5-(1-hydroxy-2-methylpropan-2-yl)isoxazol-3-yl)urea] |  |
| 250 to 500 | < 250 | 250 to 500 | COc1cc2c(Sc3cccc(NC(=O)Nc4cc(C(C)(C)C)on4)c3)ncnc2cc1OCCCN1CCC(CO)CC1 [Ex 74, 1-(5-tert-butylisoxazol-3-yl)-3-(3-(7-(3-(4-(hydroxymethyl)piperidin-1-yl)propoxy)-6-methoxyquinazolin-4-ylthio)phenyl)urea] |  |
| < 250 | < 250 | 250 to 500 | COc1cc2ncnc(Oc3cccc(NC(=O)Nc4cc(C(C)(CF)CF)on4)c3)c2cc1OC [Ex 162, 1-[5-(1,3-difluoro-2-methylpropan-2-yl)isoxazol-3-yl]-3-[3-(6,7-dimethoxyquinazolin-4-yloxy)phenyl]urea] |  |
| > 1000 | 250 to 500 | 250 to 500 | COc1cc2ncnc(Oc3cccc(NC(=O)Nc4cccc(C(C)C)c4)c3)c2cc1OC [Ex 144, 1-(3-(6,7-dimethoxyquinazolin-4-yloxy)phenyl)-3-(3-isopropylphenyl)urea] |  |
| < 250 | < 250 | 250 to 500 | COc1cc2ncnc(Sc3cccc(NC(=O)Nc4cc(C(C)(C)C)on4)c3)c2cc1OCCN1CCOCC1 [Ex 70, 1-(5-tert-butylisoxazol-3-yl)-3-(3-(7-methoxy-6-(2-morpholinoethoxy)quinazolin-4-ylthio)phenyl)urea] |  |
| < 250 | < 250 | 250 to 500 | COc1cc2ncnc(Sc3cccc(NC(=O)Nc4cc(C(C)(CF)CF)on4)c3)c2cc1OC [Ex 191, 1-[5-(1,3-difluoro-2-methylpropan-2-yl)isoxazol-3-yl]-3-[3-(6,7-dimethoxyquinazolin-4-ylthio)phenyl]urea] |  |

Continued, molecule first:

| SMILES | EC50 (A375 cells) [nM] | IC50 [2] [nM] | Kd (RAF kinases [3]) [nM] | Kd (RAF kinases [1]) [nM] |
| --- | --- | --- | --- | --- |
| CCOc1cc2ncnc(Oc3cccc(NC(=O)Nc4cc(C(C)(C)C)on4)c3)c2cc1OC [Ex 6, 1-(5-tert-butylisoxazol-3-yl)-3-[3-(7-ethoxy-6-methoxyquinazolin-4-yloxy)phenyl]urea hydrochloride] | 250 to 500 | < 250 |  | 500 to 1000 |
| COc1cc2c(Oc3cccc(NC(=O)Nc4cc(C(C)(C)C)on4)c3)ncnc2cc1O[C@@H]1CCNC1 [Ex 98, (R)-1-(5-tert-butylisoxazol-3-yl)-3-(3-(6-methoxy-7-(pyrrolidin-3-yloxy)quinazolin-4-yloxy)phenyl)urea dihydrochloride] | > 1000 | 500 to 1000 | 250 to 500 |  |
| COc1cc2ncnc(Oc3cccc(NC(=O)Nc4cc(C(C)(C)C)on4)c3)c2cc1OCCCN1CCS(=O)(=O)CC1 [Ex 26, 1-(5-tert-butyl-isoxazol-3-yl)-3-(3-{6-[3-(1,1-dioxo-thiomorpholin-4-yl)-propoxy]-7-methoxy-quinazolin-4-yloxy}-phenyl)-urea] | < 250 | < 250 | 250 to 500 |  |
| COc1cc2ncnc(Sc3cccc(NC(=O)Nc4cc(C(C)(C)F)no4)c3)c2cc1OC [Ex 187, 1-(3-(6,7-dimethoxyquinazolin-4-ylthio)phenyl)-3-(3-(2-fluoropropan-2-yl)isoxazol-5-yl)urea] | > 1000 | < 250 | 250 to 500 |  |
| COc1cc2ncnc(Sc3cccc(NC(=O)Nc4cc(C(C)(C)C)on4)c3)c2cc1OCCCN1CCS(=O)(=O)CC1 [Ex 62, 1-(5-tert-butyl-isoxazol-3-yl)-3-(3-{6-[3-(1,1-dioxo-thiomorpholin-4-yl)-propoxy]-7-methoxy-quinazolin-4-ylsulfanyl}-phenyl)-urea] | < 250 | < 250 | 250 to 500 |  |
| COc1cc2ncnc(Sc3cccc(NC(=O)Nc4cccc(C(C)(C)C)c4)c3)c2cc1OC [Ex 120, 1-(3-tert-butylphenyl)-3-(3-(6,7-dimethoxyquinazolin-4-ylthio)phenyl)urea] | > 1000 | 250 to 500 | 250 to 500 |  |
| COc1cc2ncnc(Sc3cccc(NC(=O)Nc4cc(C(C)(C)C)on4)c3)c2cc1OCCCN1CCN(CCO)CC1 [Ex 61, 1-(5-tert-butylisoxazol-3-yl)-3-(3-(6-(3-(4-(2-hydroxyethyl)piperazin-1-yl)propoxy)-7-methoxyquinazolin-4-ylthio)phenyl)urea] | > 1000 | > 1000 | 250 to 500 |  |
| COc1cc2c(Oc3cccc(NC(=O)Nc4cc(C(C)(C)C)on4)c3)ncnc2cc1OCCCN1CCN(C)CC1 [Ex 28, 1-(5-tert-butylisoxazol-3-yl)-3-(3-(6-methoxy-7-(3-(4-methylpiperazin-1-yl)propoxy)quinazolin-4-yloxy)phenyl)urea] | < 250 | < 250 | 250 to 500 |  |
| COc1cc2c(Oc3cccc(NC(=O)Nc4cc(C(C)(C)C)on4)c3)ncnc2cc1O[C@H]1CCNC1 [Ex 96, (S)-1-(5-tert-butylisoxazol-3-yl)-3-(3-(6-methoxy-7-(pyrrolidin-3-yloxy)quinazolin-4-yloxy)phenyl)urea dihydrochloride] | > 1000 | 250 to 500 | 250 to 500 |  |
| COc1cc2ncnc(Sc3cccc(NC(=O)Nc4cc(C(C)(C)C)on4)c3)c2cc1OCCCN1CCOCC1 [Ex 63, 1-(5-tert-butylisoxazol-3-yl)-3-(3-(7-methoxy-6-(3-morpholinopropoxy)quinazolin-4-ylthio)phenyl)urea] | 500 to 1000 | < 250 | 250 to 500 |  |
| COc1cc2ncnc(Oc3cccc(NC(=O)Nc4cc(C(C)(C)C)on4)c3)c2cc1OCCN1CCCCC1 [Ex 16, 1-(5-tert-butylisoxazol-3-yl)-3-(3-(7-methoxy-6-(2-(piperidin-1-yl)ethoxy)quinazolin-4-yloxy)phenyl)urea] | > 1000 | 250 to 500 | 500 to 1000 |  |

Reference: patent publication US8618289B2 (Ambit Biosciences Corporation, priority 2008, dated 2013)
